Format in all cases: cell-based
Experiment [1] has as its system Human Multiple myeloma cell line (MM.1S). Briefly: Inhibition of MM.1S cell proliferation (CellTiter luminescent viability). The conditions noted are these: 96 hours; for IC50: Table IA1, IRAK4 inhibitor-based, read-out: Inhibitory activity (IC50, nM) on tumor cell proliferation, MM.1S; for inhibition at 0.01 µM / inhibition at 0.5 µM: Homo sapiens, MM1.S, Table IA5, IRAK4 inhibitor-based; for inhibition at 0.01 µM: 10 nM, read-out: Inhibition Rate at 10 nM (%); for inhibition at 0.5 µM: 500 nM, read-out: Inhibition Rate at 500 nM (%). An outline of the steps: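 IC50 is fitted from luminescent viability (CellTiter-Meiluncell) curves. Nine-point, 5-fold dilution series (top stock 2000 μM) are added at 0.5 μL per 100 μL medium to cells plated the day before, with growth at 37 °C and 5% CO2.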

The subject of experiment [2] is Human T lymphocytic leukemia cell line (Jurkat). Briefly: Inhibition of Jurkat cell proliferation (CellTiter luminescent viability). Conditions: 96 hours; for IC50: Table IA1, IRAK4 inhibitor-based, read-out: Inhibitory activity (IC50, nM) on tumor cell proliferation, Jurkat; for inhibition at 0.01 µM / inhibition at 0.5 µM: Homo sapiens, Table IF3, AR inhibitor-based; for inhibition at 0.01 µM: 10 nM, read-out: Inhibition Rate at 10 nM (%); for inhibition at 0.5 µM: 500 nM, read-out: Inhibition Rate at 500 nM (%).

A further experiment deals with T1, AR (Homo sapiens, UniProt P10275).
T1 construct: expression of target proteins in cells; endogenous in cells
T1 sequence (P10275 1-920): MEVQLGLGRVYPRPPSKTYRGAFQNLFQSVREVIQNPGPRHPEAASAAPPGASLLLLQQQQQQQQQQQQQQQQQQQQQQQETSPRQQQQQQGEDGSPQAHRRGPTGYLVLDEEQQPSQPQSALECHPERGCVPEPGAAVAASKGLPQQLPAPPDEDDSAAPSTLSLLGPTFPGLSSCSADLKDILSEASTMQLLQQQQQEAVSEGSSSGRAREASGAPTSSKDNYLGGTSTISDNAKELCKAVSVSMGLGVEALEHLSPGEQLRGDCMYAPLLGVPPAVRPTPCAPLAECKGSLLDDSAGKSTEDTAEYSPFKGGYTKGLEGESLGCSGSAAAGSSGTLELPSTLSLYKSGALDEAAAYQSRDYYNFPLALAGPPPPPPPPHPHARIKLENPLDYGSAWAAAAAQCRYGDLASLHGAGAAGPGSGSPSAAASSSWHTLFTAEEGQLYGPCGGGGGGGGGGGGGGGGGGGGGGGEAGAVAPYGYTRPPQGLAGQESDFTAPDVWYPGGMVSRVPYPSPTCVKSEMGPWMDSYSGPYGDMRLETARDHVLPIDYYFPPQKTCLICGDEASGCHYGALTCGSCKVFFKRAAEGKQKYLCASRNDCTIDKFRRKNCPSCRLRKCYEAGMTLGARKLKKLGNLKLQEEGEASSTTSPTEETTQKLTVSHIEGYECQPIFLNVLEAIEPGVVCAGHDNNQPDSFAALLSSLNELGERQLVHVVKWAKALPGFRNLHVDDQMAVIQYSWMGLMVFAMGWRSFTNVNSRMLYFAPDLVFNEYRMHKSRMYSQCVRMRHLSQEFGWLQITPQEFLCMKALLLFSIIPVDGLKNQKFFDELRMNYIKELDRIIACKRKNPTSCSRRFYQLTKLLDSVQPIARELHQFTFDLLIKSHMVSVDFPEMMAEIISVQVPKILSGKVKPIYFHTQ
The experiment is described as follows: Western blot degradation of AR. The conditions noted are these: LnCap Cell; 24 hours. In outline: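 Compound-treated cells harvested; lysates denatured 5 min at 95 °C, run on SDS-PAGE, blotted to NC membrane, blocked 1 h RT, probed with antibodies. Densitometry vs DMSO → DC50; target normalised to internal control → % remaining, degradation = 1 − remaining.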

Experiment [3] concerns Human B-Cell Lymphoma Cells (RPMI-8226). The experiment is described as follows: Inhibition of RPMI-8226 cell proliferation (CellTiter luminescent viability). Conditions: Table IA4, IRAK4 inhibitor-based, RPMI-8226, 500 nM, 96 hours, read-out: Inhibition Rate at 500 nM (%).
Assay in experiment [4]: as above
Conditions: Homo sapiens; Table IA4, IRAK4 inhibitor-based; RPMI-8226, 10 nM, 96 hours; read-out: Inhibition Rate at 10 nM (%).

Broadly, the inhibition is the change of the read-out against control, counted positive when it falls.

Consider `O=C1CCN(N2Cc3cc(CN4CCC(n5cc(NC(=O)c6coc(-c7ccnc(NCC8CC8)c7)n6)c(C(F)F)n5)CC4)ccc3C2=O)C(=O)N1` [GT-04951, 2-(2-((cyclopropylmethyl)amino)pyridin-4-yl)-N-(3-(difluoromethyl)-1-(1-((2-(2,4-dioxotetrahydropyrimidin-1(2H)-yl)-1-oxoisoindolin-5-yl)methyl)piperidin-4-yl)-1H-pyrazol-4-yl) oxazole-4-carboxamide], for which the IC50 in experiment [1] is 10 to 50 nM; in experiment [2], 100 to 300 nM.
Take `O=C1CCN(N2Cc3cc(CN4CCC(n5cc(NC(=O)c6cnn7ccc(N8C[C@H]9C[C@@H]8CO9)nc67)c(C(F)F)n5)CC4)ccc3C2=O)C(=O)N1` [GT-05028, 5-((1R,4R)-2-oxa-5-azabicyclo[2.2.1]heptan-5-yl)-N-(3-(difluoromethyl)-1-(1-((2-(2,4-dioxotetrahydropyrimidin-1(2H)-yl)-1-oxoisoindolin-5-yl)methyl)piperidin-4-yl)-1H-pyrazol-4-yl)pyrazolo[1,5-a]pyrimidine-3-carboxamide]: the results for the IC50 in experiment [1] and in experiment [2] were 10 to 50 nM and 100 to 300 nM, respectively.
Take `N#Cc1ccc(O[C@H]2CC[C@H](NC(=O)c3ccc(N4CCC(CN5C[C@@H]6C[C@H]5CN6c5ccc6c(c5)C(=O)N(N5CCC(=O)NC5=O)C6=O)CC4)nn3)CC2)cc1Cl` [GT-05226, N-((1r,4r)-4-(3-chloro-4-cyanophenoxy)cyclohexyl)-6-(4-(((1S,4S)-5-(2-(2,4-dioxotetrahydropyrimidin-1(2H)-yl)-1,3-dioxoisoindolin-5-yl)-2,5-diazabicyclo[2.2.1]heptan-2-yl)methyl)piperidin-1-yl)pyridazine-3-carboxamide]: at AR, the “Degradation of substrate protein AR (substrate protein remaining %)” value (shortened to “Degradation … (substrate protein remaining %)”) is recorded as “A (0%≤substrate protein remaining %≤80%)”.
Regarding `O=C1CCN(N2C(=O)c3ccc(N4C5CC4CN(C[C@H]4CC[C@H](n6cc(NC(=O)c7cnn8ccc(N9C[C@H]%10C[C@@H]9CO%10)nc78)c(C(F)F)n6)CC4)C5)cc3C2=O)C(=O)N1` [GT-05242, 5-((1R,4R)-2-oxa-5-azabicyclo[2.2.1]heptan-5-yl)-N-(3-(difluoromethyl)-1-((1r,4R)-4-((6-(2-(2,4-dioxotetrahydropyrimidin-1(2H)-yl)-1,3-dioxoisoindolin-5-yl)-3,6-diazabicyclo[3.1.1]heptan-3-yl)methyl)cyclohexyl)-1H-pyrazol-4-yl)pyrazolo[1,5-a]pyrimidine-3-carboxamide], the inhibition at 0.5 µM in experiment [3] lay within 30 to 40%. Also, the inhibition at 0.01 µM in experiment [4] lay within 20 to 25%.
For the molecule `O=C1CCN(N2C(=O)c3cccc(N4CCC(CN5CCC(n6cc(NC(=O)c7cnn8ccc(N9C[C@H]%10C[C@@H]9CO%10)nc78)c(C(F)F)n6)CC5)CC4)c3C2=O)C(=O)N1` [GT-05285, 5-((1R,4R)-2-oxa-5-azabicyclo[2.2.1]heptan-5-yl)-N-(3-(difluoromethyl)-1-(1-((1-(2-(2,4-dioxotetrahydropyrimidin-1(2H)-yl)-1,3-dioxoisoindolin-4-yl)piperidin-4-yl)methyl)piperidin-4-yl)-1H-pyrazol-4-yl)pyrazolo[1,5-a]pyrimidine-3-carboxamide], the figures for the inhibition at 0.01 µM in experiment [1] and in experiment [4] were 40 to 60% and 30 to 40%, respectively. Moreover, the inhibition at 0.5 µM is 60 to 80% in experiment [1] and 25 to 30% in experiment [3].
Regarding `CC(C)(O)c1cc2nc(C3CCN(Cc4ccc5c(c4)CN(N4CCC(=O)NC4=O)C5=O)CC3)oc2cc1NC(=O)c1cccc(C(F)(F)F)n1` [GT-05748, N-(2-(1-((2-(2,4-dioxotetrahydropyrimidin-1(2H)-yl)-1-oxoisoindolin-5-yl)methyl)piperidin-4-yl)-5-(2-hydroxypropan-2-yl)benzo[d]oxazol-6-yl)-6-(trifluoromethyl) picolinamide], the inhibition at 0.5 µM in experiment [3] was in the range of 15 to 20%. The inhibition at 0.01 µM in experiment [4] was in the range of 30 to 40%.
As to `O=C1CCN(N2Cc3cc(CN4CCC(n5cc(NC(=O)c6cnn7ccc(N8CCOCC8)nc67)c(C(F)F)n5)CC4)ccc3C2=O)C(=O)N1` [GT-05749], the inhibition at 0.01 µM fell in the range of 20 to 25% in experiment [1] and 25 to 30% in experiment [4]. Further, the inhibition at 0.5 µM in experiment [1] is 80 to 100%; in experiment [3], 15 to 20%.
Regarding `N#Cc1ccc(O[C@H]2CC[C@H](NC(=O)c3ccc(N4CCC(CN5CC6CCC5CN6c5ccc6c(c5)C(=O)N(N5CCC(=O)NC5=O)C6=O)CC4)nn3)CC2)cc1Cl` (some centres unmarked) [GT-05832, N-((1r,4r)-4-(3-chloro-4-cyanophenoxy)cyclohexyl)-6-(4-((5-(2-(2,4-dioxotetrahydropyrimidin-1(2H)-yl)-1,3-dioxoisoindolin-5-yl)-2,5-diazabicyclo[2.2.2]octan-2-yl)methyl)piperidin-1-yl)pyridazine-3-carboxamide], at AR, the “Degradation … (substrate protein remaining %)” value is “A (0%≤substrate protein remaining %≤80%)”. Further, in experiment [2], the inhibition at 0.01 µM was 0 to 5% and the inhibition at 0.5 µM is 20 to 30%.
With `CC1(C)[C@H](NC(=O)c2ccc(N3CCC(CN4CC5CCC4CN5c4ccc5c(c4)C(=O)N(N4CCC(=O)NC4=O)C5=O)CC3)nc2)C(C)(C)[C@H]1Oc1ccc(C#N)c(Cl)c1` (some centres unmarked) [GT-05834, N-((1r,3r)-3-(3-chloro-4-cyanophenoxy)-2,2,4,4-tetramethylcyclobutyl)-6-(4-((5-(2-(2,4-dioxotetrahydropyrimidin-1(2H)-yl)-1,3-dioxoisoindolin-5-yl)-2,5-diazabicyclo[2.2.2]octan-2-yl)methyl)piperidin-1-yl)nicotinamide], at AR, the “Degradation … (substrate protein remaining %)” value is on record as “A (0%≤substrate protein remaining %≤80%)”. Besides, in experiment [2], the inhibition at 0.01 µM lay within 15 to 20% and the inhibition at 0.5 µM was 40 to 60%.

These data come from patent US20260364184A1, “COMPOUND BASED ON OXOISOINDOLINYL-SUBSTITUTED TETRAHYDROPYRIMIDINE-DIONE AND USE THEREOF” (GLUETACS THERAPEUTICS (SHANGHAI) CO., LTD., priority 2023, published 2026).
